Measured values from US10344060B2 (priority 2013, dated 2019).

What was measured:
Assay in all cases: cell-based
Type in all cases: cell-based
hNav1.7 = hNav1.7 (Homo sapiens, UniProt Q15858); conditions: Table 12; PatchXpress, tonic block; read-out: PX hNav1.7 Tonic IC50
hNav1.6 = hNav1.6 (Homo sapiens, UniProt Q9UQD0); conditions: Table 15; for Nav1.6/Nav1.7: ratio of PX tonic IC50 values; for IC50: read-out: PX hNav1.6 Tonic IC50
hNav1.4 = hNav1.4 (Homo sapiens, UniProt P35499); conditions: Table 12; for IC50: PatchXpress, tonic block, read-out: PX hNav1.4 Tonic IC50; for Nav1.4/Nav1.7: ratio of PX tonic IC50 values

hNav1.6, sequence (Q9UQD0 whole entry): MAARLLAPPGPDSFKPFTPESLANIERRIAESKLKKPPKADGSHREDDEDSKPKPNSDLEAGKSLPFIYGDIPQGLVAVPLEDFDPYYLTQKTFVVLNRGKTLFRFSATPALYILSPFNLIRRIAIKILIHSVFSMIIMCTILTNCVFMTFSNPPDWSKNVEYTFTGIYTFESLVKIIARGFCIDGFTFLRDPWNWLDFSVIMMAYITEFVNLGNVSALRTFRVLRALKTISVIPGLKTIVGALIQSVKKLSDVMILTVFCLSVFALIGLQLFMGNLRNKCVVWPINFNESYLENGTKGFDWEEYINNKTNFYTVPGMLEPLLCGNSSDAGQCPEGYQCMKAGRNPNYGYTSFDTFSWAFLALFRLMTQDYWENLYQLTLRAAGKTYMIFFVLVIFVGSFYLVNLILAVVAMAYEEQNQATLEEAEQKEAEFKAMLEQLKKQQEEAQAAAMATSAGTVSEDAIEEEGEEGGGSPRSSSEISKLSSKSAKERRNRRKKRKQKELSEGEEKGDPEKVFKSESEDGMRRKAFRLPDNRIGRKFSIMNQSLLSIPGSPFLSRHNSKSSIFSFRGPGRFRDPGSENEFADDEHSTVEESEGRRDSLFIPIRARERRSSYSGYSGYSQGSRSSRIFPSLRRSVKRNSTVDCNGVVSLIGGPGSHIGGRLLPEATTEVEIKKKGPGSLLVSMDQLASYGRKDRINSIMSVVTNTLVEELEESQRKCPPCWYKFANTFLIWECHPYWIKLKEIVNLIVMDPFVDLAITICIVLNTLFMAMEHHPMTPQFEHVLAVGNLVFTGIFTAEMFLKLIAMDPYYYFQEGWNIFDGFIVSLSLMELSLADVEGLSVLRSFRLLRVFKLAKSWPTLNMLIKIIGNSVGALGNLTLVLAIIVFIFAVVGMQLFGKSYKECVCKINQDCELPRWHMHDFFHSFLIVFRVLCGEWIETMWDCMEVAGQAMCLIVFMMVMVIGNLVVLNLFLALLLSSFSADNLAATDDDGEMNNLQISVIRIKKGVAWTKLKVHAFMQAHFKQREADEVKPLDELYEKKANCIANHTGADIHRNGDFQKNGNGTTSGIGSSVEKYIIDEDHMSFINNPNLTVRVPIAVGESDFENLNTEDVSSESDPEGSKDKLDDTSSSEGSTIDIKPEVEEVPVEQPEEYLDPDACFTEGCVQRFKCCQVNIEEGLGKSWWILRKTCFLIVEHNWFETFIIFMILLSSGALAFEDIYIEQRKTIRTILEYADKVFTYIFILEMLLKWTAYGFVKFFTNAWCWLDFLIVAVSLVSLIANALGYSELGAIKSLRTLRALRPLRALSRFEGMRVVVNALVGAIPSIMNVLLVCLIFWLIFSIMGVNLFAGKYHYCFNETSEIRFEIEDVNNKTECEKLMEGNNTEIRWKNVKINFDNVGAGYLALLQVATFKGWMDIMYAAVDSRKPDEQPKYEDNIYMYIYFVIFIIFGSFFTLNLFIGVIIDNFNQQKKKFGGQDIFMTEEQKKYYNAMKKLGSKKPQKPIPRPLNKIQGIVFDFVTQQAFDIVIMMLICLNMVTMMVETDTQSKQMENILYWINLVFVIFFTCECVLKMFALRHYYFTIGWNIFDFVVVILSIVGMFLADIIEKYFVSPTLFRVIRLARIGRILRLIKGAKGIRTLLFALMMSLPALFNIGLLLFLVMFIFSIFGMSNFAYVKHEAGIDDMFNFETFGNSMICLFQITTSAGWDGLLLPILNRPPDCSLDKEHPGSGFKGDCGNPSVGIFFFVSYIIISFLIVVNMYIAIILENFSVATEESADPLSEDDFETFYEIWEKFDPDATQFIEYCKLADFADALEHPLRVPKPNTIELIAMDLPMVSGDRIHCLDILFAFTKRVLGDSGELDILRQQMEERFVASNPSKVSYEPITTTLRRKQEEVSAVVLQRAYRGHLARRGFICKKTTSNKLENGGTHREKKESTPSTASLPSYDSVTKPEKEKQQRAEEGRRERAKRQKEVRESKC
hNav1.7, sequence (Q15858 whole entry): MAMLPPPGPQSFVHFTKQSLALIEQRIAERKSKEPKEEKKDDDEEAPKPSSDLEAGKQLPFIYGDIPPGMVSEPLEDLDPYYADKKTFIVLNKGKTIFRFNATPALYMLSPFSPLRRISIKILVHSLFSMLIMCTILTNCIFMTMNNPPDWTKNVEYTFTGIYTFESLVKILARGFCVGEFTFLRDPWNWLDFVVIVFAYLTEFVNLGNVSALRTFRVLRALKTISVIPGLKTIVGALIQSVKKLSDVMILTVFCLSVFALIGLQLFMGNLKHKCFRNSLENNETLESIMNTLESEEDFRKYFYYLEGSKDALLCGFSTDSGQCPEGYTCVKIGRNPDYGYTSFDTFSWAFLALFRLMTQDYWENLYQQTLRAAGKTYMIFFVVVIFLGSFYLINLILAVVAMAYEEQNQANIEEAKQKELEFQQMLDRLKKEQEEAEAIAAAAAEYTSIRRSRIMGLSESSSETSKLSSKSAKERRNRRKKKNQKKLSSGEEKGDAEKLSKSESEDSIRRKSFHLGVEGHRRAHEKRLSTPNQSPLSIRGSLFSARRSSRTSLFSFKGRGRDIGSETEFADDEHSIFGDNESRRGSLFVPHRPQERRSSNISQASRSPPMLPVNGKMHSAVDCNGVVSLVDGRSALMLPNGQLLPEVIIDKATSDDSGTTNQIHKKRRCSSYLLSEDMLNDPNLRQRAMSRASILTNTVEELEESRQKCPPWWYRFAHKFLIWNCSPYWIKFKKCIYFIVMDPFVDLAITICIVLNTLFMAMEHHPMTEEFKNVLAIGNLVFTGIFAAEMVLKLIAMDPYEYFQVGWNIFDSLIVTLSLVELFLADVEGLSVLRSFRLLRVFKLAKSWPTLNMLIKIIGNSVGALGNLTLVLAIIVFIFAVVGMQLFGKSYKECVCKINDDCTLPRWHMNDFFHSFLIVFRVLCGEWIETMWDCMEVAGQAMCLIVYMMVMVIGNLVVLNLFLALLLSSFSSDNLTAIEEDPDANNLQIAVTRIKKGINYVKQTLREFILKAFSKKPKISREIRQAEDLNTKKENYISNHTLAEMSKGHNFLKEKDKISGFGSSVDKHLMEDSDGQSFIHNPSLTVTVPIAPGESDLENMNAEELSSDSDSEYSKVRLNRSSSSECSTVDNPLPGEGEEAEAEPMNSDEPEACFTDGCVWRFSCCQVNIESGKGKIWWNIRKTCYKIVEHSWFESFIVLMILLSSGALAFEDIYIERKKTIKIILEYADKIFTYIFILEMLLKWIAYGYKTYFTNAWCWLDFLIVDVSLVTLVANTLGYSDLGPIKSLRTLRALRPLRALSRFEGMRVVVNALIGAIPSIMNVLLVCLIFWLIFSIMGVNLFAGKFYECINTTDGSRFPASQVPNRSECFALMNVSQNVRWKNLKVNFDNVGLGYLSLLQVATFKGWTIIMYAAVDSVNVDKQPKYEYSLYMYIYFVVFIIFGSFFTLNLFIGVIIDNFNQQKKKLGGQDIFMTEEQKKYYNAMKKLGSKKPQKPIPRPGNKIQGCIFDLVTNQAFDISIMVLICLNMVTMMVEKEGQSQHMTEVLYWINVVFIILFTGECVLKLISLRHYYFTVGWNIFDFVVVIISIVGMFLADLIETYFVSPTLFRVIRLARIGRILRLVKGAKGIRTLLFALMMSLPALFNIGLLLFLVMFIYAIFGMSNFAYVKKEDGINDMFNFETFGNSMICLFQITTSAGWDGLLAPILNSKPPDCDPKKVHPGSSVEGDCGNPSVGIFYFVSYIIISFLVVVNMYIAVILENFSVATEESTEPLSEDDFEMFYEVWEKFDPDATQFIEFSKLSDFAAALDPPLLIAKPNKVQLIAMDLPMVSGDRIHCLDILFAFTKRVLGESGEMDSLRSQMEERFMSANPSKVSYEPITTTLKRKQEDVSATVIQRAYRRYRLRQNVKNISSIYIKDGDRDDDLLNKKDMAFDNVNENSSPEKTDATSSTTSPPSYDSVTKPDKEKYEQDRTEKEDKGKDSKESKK

SMILES	IC50 (hNav1.7)	Nav1.6/Nav1.7 (hNav1.6)	IC50 (hNav1.6)	IC50 (hNav1.4)	Nav1.4/Nav1.7 (hNav1.4)
C#CC[C@H](N)C(=O)N[C@@H](Cc1ccc(O)cc1)C(=O)N[C@H]1CSSC[C@@H]2NC(=O)[C@@H]3CSSC[C@@H](C(=O)N[C@@H](CCCNC(=N)N)C(=O)N[C@@H](CCCCN)C(=O)N[C@@H](CCC(=O)O)C(=O)N[C@H](C(N)=O)[C@@H](C)CC)NC(=O)[C@H](Cc4c[nH]c5ccccc45)NC(=O)[C@H](CC(C)C)NC(=O)[C@H](CCCCN)NC(=O)[C@H](CSSC[C@H](NC(=O)[C@H]([C@@H](C)O)NC(=O)[C@H](Cc4c[nH]c5ccccc45)NC(=O)[C@H](CCCC)NC(=O)[C@H](Cc4c[nH]c5ccccc45)NC(=O)[C@H](CCCCN)NC(=O)[C@H](CCC(N)=O)NC1=O)C(=O)N[C@@H](CC(=O)O)C(=O)N[C@@H](CCC(=O)O)C(=O)N[C@@H](CCC(=O)O)C(=O)N[C@@H](CCCNC(=N)N)C(=O)N[C@@H](C)C(=O)N3)NC(=O)[C@H](CCCNC(=N)N)NC(=O)[C@H](CC(C)C)NC(=O)CNC(=O)[C@H](CCC(=O)O)NC2=O [compound 744]	3.8 nM	217	825 nM	1420 nM	374
C#CC[C@H](NC(=O)[C@@H](N)CCC(=O)O)C(=O)N[C@H]1CSSC[C@@H]2NC(=O)[C@@H]3CSSC[C@@H](C(=O)N[C@@H](CCCNC(=N)N)C(=O)N[C@@H](CCCCN)C(=O)N[C@@H](CCC(=O)O)C(=O)N[C@H](C(N)=O)[C@@H](C)CC)NC(=O)[C@H](Cc4c[nH]c5ccccc45)NC(=O)[C@H](CC(C)C)NC(=O)[C@H](CCCCN)NC(=O)[C@H](CSSC[C@H](NC(=O)[C@H]([C@@H](C)O)NC(=O)[C@H](Cc4c[nH]c5ccccc45)NC(=O)[C@H](CCCC)NC(=O)[C@H](Cc4c[nH]c5ccccc45)NC(=O)[C@H](CCCCN)NC(=O)[C@H](CCC(N)=O)NC1=O)C(=O)N[C@@H](CC(=O)O)C(=O)N[C@@H](CCC(=O)O)C(=O)N[C@@H](CCCCN)C(=O)N[C@@H](CCCNC(=N)N)C(=O)N[C@@H](CCC(=O)O)C(=O)N3)NC(=O)[C@H](CCCNC(=N)N)NC(=O)[C@H](CC(C)C)NC(=O)CNC(=O)[C@H](CCC(=O)O)NC2=O [compound 750]	2.91 nM	>3442	> 10000 nM	1190 nM	411
C#CC[C@H](NC(=O)[C@@H](N)CCC(=O)O)C(=O)N[C@@H](Cc1ccc(O)cc1)C(=O)N[C@H]1CSSC[C@@H]2NC(=O)[C@@H]3CSSC[C@@H](C(=O)N[C@@H](CCCNC(=N)N)C(=O)N[C@@H](CCCCN)C(=O)N[C@@H](CCC(=O)O)C(=O)N[C@H](C(N)=O)[C@@H](C)CC)NC(=O)[C@H](Cc4c[nH]c5ccccc45)NC(=O)[C@H](CC(C)C)NC(=O)[C@H](CCCCN)NC(=O)[C@H](CSSC[C@H](NC(=O)[C@H]([C@@H](C)O)NC(=O)[C@H](Cc4c[nH]c5ccccc45)NC(=O)[C@H](CCCC)NC(=O)[C@H](Cc4c[nH]c5ccccc45)NC(=O)[C@H](CCCCN)NC(=O)[C@H](CCC(N)=O)NC1=O)C(=O)N[C@@H](CC(=O)O)C(=O)N[C@@H](CO)C(=O)N[C@@H](CCCCN)C(=O)N[C@@H](CCCNC(=N)N)C(=O)N[C@@H](C)C(=O)N3)NC(=O)[C@H](CCCNC(=N)N)NC(=O)[C@H](CC(C)C)NC(=O)CNC(=O)[C@H](CCC(=O)O)NC2=O [compound 707]	0.738 nM	236	174 nM	112 nM	152
C#CC[C@H](N)C(=O)N[C@@H](Cc1ccc(O)cc1)C(=O)N[C@H]1CSSC[C@@H]2NC(=O)[C@@H]3CSSC[C@@H](C(=O)N[C@@H](CCCNC(=N)N)C(=O)N[C@@H](CCCCN)C(=O)N[C@@H](CCC(=O)O)C(=O)N[C@H](C(N)=O)[C@@H](C)CC)NC(=O)[C@H](Cc4c[nH]c5ccccc45)NC(=O)[C@H](CC(C)C)NC(=O)[C@H](CCCCN)NC(=O)[C@H](CSSC[C@H](NC(=O)[C@H]([C@@H](C)O)NC(=O)[C@H](Cc4c[nH]c5ccccc45)NC(=O)[C@H](CCCC)NC(=O)[C@H](Cc4c[nH]c5ccccc45)NC(=O)[C@H](CCCCN)NC(=O)[C@H](CCC(N)=O)NC1=O)C(=O)N[C@@H](CC(=O)O)C(=O)N[C@@H](CO)C(=O)N[C@@H](CCCCN)C(=O)N[C@@H](CCCNC(=N)N)C(=O)N[C@@H](C)C(=O)N3)NC(=O)[C@H](CCCNC(=N)N)NC(=O)[C@H](CC(C)C)NC(=O)CNC(=O)[C@H](CCCCN)NC2=O [compound 718]	1.42 nM	104	148 nM	33.9 nM	24
C#CC[C@H](N)C(=O)N[C@@H](CCC(=O)O)C(=O)N[C@H]1CSSC[C@@H]2NC(=O)[C@@H]3CSSC[C@@H](C(=O)N[C@@H](CCCNC(=N)N)C(=O)N[C@@H](CCCCN)C(=O)N[C@@H](CCC(=O)O)C(=O)N[C@H](C(N)=O)[C@@H](C)CC)NC(=O)[C@H](Cc4c[nH]c5ccccc45)NC(=O)[C@H](CC(C)C)NC(=O)[C@H](CCCCN)NC(=O)[C@H](CSSC[C@H](NC(=O)[C@H]([C@@H](C)O)NC(=O)[C@H](Cc4c[nH]c5ccccc45)NC(=O)[C@H](CCCC)NC(=O)[C@H](Cc4c[nH]c5ccccc45)NC(=O)[C@H](CCCCN)NC(=O)[C@H](CCC(N)=O)NC1=O)C(=O)N[C@@H](CC(=O)O)C(=O)N[C@@H](CO)C(=O)N[C@@H](CCCCN)C(=O)N[C@@H](CCCNC(=N)N)C(=O)N[C@@H](CCC(=O)O)C(=O)N3)NC(=O)[C@H](CCCNC(=N)N)NC(=O)[C@H](CC(C)C)NC(=O)CNC(=O)[C@H](CCC(=O)O)NC2=O [compound 743]	1.36 nM	1727	2340 nM	670 nM	494
C#CC[C@H](N)C(=O)N[C@@H](CCC(=O)O)C(=O)N[C@H]1CSSC[C@@H]2NC(=O)[C@@H]3CSSC[C@@H](C(=O)N[C@@H](CCCNC(=N)N)C(=O)N[C@@H](CCCCN)C(=O)N[C@@H](CCC(=O)O)C(=O)N[C@H](C(N)=O)[C@@H](C)CC)NC(=O)[C@H](Cc4c[nH]c5ccccc45)NC(=O)[C@H](CC(C)C)NC(=O)[C@H](CCCCN)NC(=O)[C@H](CSSC[C@H](NC(=O)[C@H]([C@@H](C)O)NC(=O)[C@H](Cc4c[nH]c5ccccc45)NC(=O)[C@H](CCCC)NC(=O)[C@H](Cc4c[nH]c5ccccc45)NC(=O)[C@H](CCCCN)NC(=O)[C@H](CCC(N)=O)NC1=O)C(=O)N[C@@H](CC(=O)O)C(=O)N[C@@H](CCC(=O)O)C(=O)N[C@@H](CCCCN)C(=O)N[C@@H](CCCNC(=N)N)C(=O)N[C@@H](C)C(=O)N3)NC(=O)[C@H](CCCNC(=N)N)NC(=O)[C@H](CC(C)C)NC(=O)CNC(=O)[C@H](CCC(=O)O)NC2=O [compound 739]	5.55 nM	395	2190 nM	1280 nM	231
C#CC[C@H](N)C(=O)N[C@@H](Cc1ccc(O)cc1)C(=O)N[C@H]1CSSC[C@@H]2NC(=O)[C@@H]3CSSC[C@@H](C(=O)N[C@@H](CCCNC(=N)N)C(=O)N[C@@H](CCCCN)C(=O)N[C@@H](CCC(=O)O)C(=O)N[C@H](C(N)=O)[C@@H](C)CC)NC(=O)[C@H](Cc4c[nH]c5ccccc45)NC(=O)[C@H](CC(C)C)NC(=O)[C@H](CCCCN)NC(=O)[C@H](CSSC[C@H](NC(=O)[C@H](CCC(=O)O)NC(=O)[C@H](Cc4c[nH]c5ccccc45)NC(=O)[C@H](CCCC)NC(=O)[C@H](Cc4c[nH]c5ccccc45)NC(=O)[C@H](CCCCN)NC(=O)[C@H](CCC(N)=O)NC1=O)C(=O)N[C@@H](CC(=O)O)C(=O)N[C@@H](CO)C(=O)N[C@@H](CCCCN)C(=O)N[C@@H](CCCNC(=N)N)C(=O)N[C@@H](C)C(=O)N3)NC(=O)[C@H](CCCNC(=N)N)NC(=O)[C@H](CC(C)C)NC(=O)CNC(=O)[C@H](CCC(=O)O)NC2=O [compound 712]	16.4 nM	395	6460 nM	1580 nM	97
C#CC[C@H](N)C(=O)N[C@@H](Cc1ccc(O)cc1)C(=O)N[C@H]1CSSC[C@@H]2NC(=O)[C@@H]3CSSC[C@@H](C(=O)N[C@@H](CCCNC(=N)N)C(=O)N[C@@H](CCCCN)C(=O)N[C@@H](CC(=O)O)C(=O)N[C@H](C(N)=O)[C@@H](C)CC)NC(=O)[C@H](Cc4c[nH]c5ccccc45)NC(=O)[C@H](CC(C)C)NC(=O)[C@H](CCCCN)NC(=O)[C@H](CSSC[C@H](NC(=O)[C@H]([C@@H](C)O)NC(=O)[C@H](Cc4c[nH]c5ccccc45)NC(=O)[C@H](CCCC)NC(=O)[C@H](Cc4c[nH]c5ccccc45)NC(=O)[C@H](CCCCN)NC(=O)[C@H](CCC(N)=O)NC1=O)C(=O)N[C@@H](CC(=O)O)C(=O)N[C@@H](CO)C(=O)N[C@@H](CCCCN)C(=O)N[C@@H](CCCNC(=N)N)C(=O)N[C@@H](C)C(=O)N3)NC(=O)[C@H](CCCNC(=N)N)NC(=O)[C@H](CC(C)C)NC(=O)CNC(=O)[C@H](CCC(=O)O)NC2=O [compound 723]	5.98 nM	270	1620 nM	78.4 nM	13
C#CC[C@@H]1NC(=O)[C@@H]2CSSC[C@H](NC(=O)[C@H](Cc3ccc(O)cc3)NC(=O)[C@@H](N)CC#N)C(=O)N[C@@H](CCC(N)=O)C(=O)N[C@@H](CCCCN)C(=O)N[C@@H](Cc3c[nH]c4ccccc34)C(=O)N[C@@H](CCCC)C(=O)N[C@@H](Cc3c[nH]c4ccccc34)C(=O)N[C@@H]([C@@H](C)O)C(=O)N[C@H]3CSSC[C@H](NC(=O)[C@H](CCCNC(=N)N)NC(=O)[C@H](CC(C)C)NC(=O)CNC1=O)C(=O)N[C@@H](CCCCN)C(=O)N[C@@H](CC(C)C)C(=O)N[C@@H](Cc1c[nH]c4ccccc14)C(=O)N[C@H](C(=O)N[C@@H](CCCNC(=N)N)C(=O)N[C@@H](CCCCN)C(=O)N[C@@H](CCC(=O)O)C(=O)N[C@H](C(N)=O)[C@@H](C)CC)CSSC[C@H](NC(=O)[C@H](CCC(=O)O)NC(=O)[C@H](CCCNC(=N)N)NC(=O)[C@H](CCCCN)NC(=O)[C@H](CO)NC(=O)[C@H](CC(=O)O)NC3=O)C(=O)N2 [compound 733]	1.19 nM	147	175 nM	130 nM	109
